# Reference: patent US12264352B2, “Method for enhancing extracellular vesicle production” (Research Foundation of the City University of New York, priority 2016, dated 2025)
# Non-standard residues stand in square brackets, D forms with d. Residues, ends and D or L forms follow the SMILES beside them. *: point of attachment. Acetyl(2-naphthyl) = O=C(Cc1ccc2ccccc2c1)*; pY = N[C@@H](Cc1ccc(OP(=O)(O)O)cc1)C(=O)O; NBD = O=[N+]([O-])c1ccc(*)c2nonc12
# Tests used:
# [1] = tested on: MB231, HT1080, MB231-4175; assay: Cell tests (toxicity/viability) for various cell types at 0-200 μM peptide after 60 min of incubation; format: cell-based; settings: in general, toxicity depends on cell type; 60 min incubation; FIG. 5A
# Description: As shown in FIG. 5A toxicity depends on the cell type, however in general cells are viable under 100 μM of peptide incubation (NapFFK(NBD)Yp). […] Thus, EV generation can be amplified as low as 5 μM of peptide incubation and shorter times to be effective.
# [2] = tested on: MDA-MB231 breast cancer cells; assay: Cell death of the cells used for EV production at high peptide concentration; format: cell-based; settings: the particular cells used for EV production
# Source text: The NTA can also determine the average diameter of released EVs. While the increase of polymer concentration in parental cells increases the number of released EVs, the size of EVs is constant regardless of the polypeptide concentration in parental cells (FIG. 3B, FIG. 3C, FIG. 3D, FIG. 3E). The increased number of released EVs can also be confirmed by the increase of fluorescence intensity of collected EVs (FIG. 3F), measured by fluorescence spectrometer. […] In one embodiment, production is enhanced by at least 50% relative to the control. […] The particular cells used experienced cell death at concentrations above 500 μM of NapFFKYp-NBD. Alternative upper limits may be possible for other cell line and other polypeptide precursors.
structure (smiles),measurement,setting,value
O=C(Cc1ccc2ccccc2c1)N[C@@H](Cc1ccccc1)C(=O)N[C@@H](Cc1ccccc1)C(=O)N[C@@H](CCCCNc1ccc([N+](=O)[O-])c2nonc12)C(=O)N[C@@H](Cc1ccc(OP(=O)(O)O)cc1)C(=O)O [NapFFK(NBD)Yp] ({Acetyl(2-naphthyl)}-FFK(NBD)[pY]-OH),peptide concentration under which cells are viable,[1],under 100 μM
same,concentration above which cells experienced cell death,[2],above 500 μM
